Our source for the IC50 values is patent publication US9067905B2, “Sulphone compounds and methods of making and using same” (Zafgen, Inc., priority 2009, dated 2015).

For this assay, the target named is T1, recombinant human MetAP2 (Homo sapiens, UniProt P50579).
T1 construct: Flag; made in house; host or cells: Sf9 insect cells
Description: Inhibition of recombinant human MetAP2 activity (Amplex red fluorescence assay). The class given is biochemical. As to conditions: manganese Flag-MetAP2, 0.75 mM Methionine-Alanine-Serine substrate, 30 minutes at 25° C., pH 7.5, 1% DMSO. The procedure: Compounds are tested for their capacity to inhibit recombinant human MetAP2 activity using the following assay.
Human recombinant Flag-MetAP2 expressed in Sf9 cells followed by affinity purification and EDTA treatment to remove endogenous active site cation is dialysed against MnCl2 to produce the manganese enzyme used in the assay. The assay is carried out for 30 minutes at 25° C. in 50 mM HEPES buffer containing 100 mM NaCl, pH 7.5 the presence of 0.75 mM Methionine-Alanine-Serine (MAS) substrate and 50 μg/ml amino acid oxidase using a dilution of purified MetAP2 giving approximately 50,000 RFU control activity. Cleavage of the substrate by MetAP2 and oxidation of free methionine by amino acid oxidase is detected and quantified using fluorescence generated by Amplex red (10-acetyl-3,7-dihydroxyphenoxazine) in combination with horseradish peroxidase which detects H2O2 released during the oxidation step. The fluorescent signal is detected using a multiwell fluorimeter. Compounds are diluted in DMSO prior to addition to assay buffer, the final DMSO concentration in the assay being 1%.
The IC50 is defined as the concentration at which a given compound achieves 50% inhibition of control. IC50 values are calculated using the XLfit software package (version 2.0.5).

Counter-ions that a name gives are not always drawn.

In general, IC50 refers to the concentration that inhibits the measured activity by half.

T1 sequence (P50579 whole entry): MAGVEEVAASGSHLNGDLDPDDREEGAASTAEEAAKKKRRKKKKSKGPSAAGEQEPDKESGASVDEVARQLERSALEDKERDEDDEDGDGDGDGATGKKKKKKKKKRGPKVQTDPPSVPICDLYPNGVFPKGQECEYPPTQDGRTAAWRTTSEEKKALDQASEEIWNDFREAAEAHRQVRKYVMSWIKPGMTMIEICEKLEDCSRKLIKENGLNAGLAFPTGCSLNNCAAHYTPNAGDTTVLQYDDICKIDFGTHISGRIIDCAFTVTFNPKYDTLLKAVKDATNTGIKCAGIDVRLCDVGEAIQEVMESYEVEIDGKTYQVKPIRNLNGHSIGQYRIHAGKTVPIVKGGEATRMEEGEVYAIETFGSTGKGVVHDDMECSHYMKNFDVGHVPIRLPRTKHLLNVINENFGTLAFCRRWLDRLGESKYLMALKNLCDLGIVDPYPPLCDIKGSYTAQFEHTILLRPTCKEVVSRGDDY

As to `CCc1ccc(CS(=O)(=O)c2ccccc2)c(C(=O)O)c1-c1ccnn1C` [6-(Benzenesulphonylmethyl)-3-ethyl-2-(2-methyl-2H-pyrazol-3-yl)-benzoic acid], the IC50 is greater than 2 µM. For the compound `COc1c(-c2ccoc2)ccc(CS(=O)(=O)c2ccccc2C)c1C(=O)O` [3-(Furan-3-yl)-2-methoxy-6-(2-methyl-benzenesulphonylmethyl)benzoic acid], the IC50 lay within 0.2 to 2 µM. For `COc1c(-c2ccoc2)ccc(CS(=O)(=O)C2C3CCC2CC3)c1C(=O)O` (centres unmarked) [6-(Bicyclo[2.2.1]heptane-7-ylsulphonylmethyl)-3-(furan-3-yl)-2-methoxybenzoic acid], the IC50 fell in the range of 0.2 to 2 µM. Under `CCc1ccc(CS(=O)(=O)c2ccccc2)c(C(=O)O)c1-c1cc[nH]n1` [6-(Benzenesulphonylmethyl)-3-ethyl-2-(1H-pyrazol-3-yl)benzoic acid] stands 0.2 to 2 µM.

For the compound `CCN(CC)CCOc1ccccc1S(=O)(=O)Cc1ccc(-c2ccoc2)c(OC)c1C(=O)O` [6-[2-(2-Diethylaminoethoxy)benzenesulphonylmethyl]-3-(furan-3-yl)-2-methoxybenzoic acid], the 50% inhibitory concentration (IC50) is greater than 2 µM.

`COc1c(-c2cc[nH]n2)ccc(CS(=O)(=O)c2ccccc2)c1C(=O)O` [6-(Benzenesulphonylmethyl)-2-methoxy-3-(pyrazol-3-yl)benzoic acid]: the IC50 was greater than 2 µM. Regarding `CNc1c(-c2ccoc2)ccc(CS(=O)(=O)c2ccccc2)c1C(=O)O` [6-(Benzenesulphonylmethyl)-3-(furan-3-yl)-2-methylamino benzoic acid], the IC50 is less than 0.2 µM. On to `CN=S(=O)(Cc1ccc(-c2ccoc2)c(OC)c1C(=O)O)c1ccccc1` (centres unmarked) [3-(Furan-3-yl)-2-methoxy-6-[(N-methyl-S-phenylsulphonimidoyl)methyl]benzoic acid], for which the IC50 lay in the range of 0.2 to 2 µM.

Take `COc1c(-c2ccco2)ccc(CS(=O)(=O)c2ccccc2)c1C(=O)O` [6-(Benzenesulphonylmethyl)-3-(furan-2-yl)-2-methoxy-benzoic acid]: the IC50 was greater than 2 µM.

Consider `COc1c(-c2ccns2)ccc(CS(=O)(=O)c2ccccc2)c1C(=O)O` [6-(Benzenesulphonylmethyl-3-(isothiazol-5-yl)-2-methoxy-benzoic acid], for which the IC50 was less than 0.2 µM.

`CC#Cc1c(-c2ccoc2)ccc(CS(=O)(=O)c2ccccc2)c1C(=O)O` [6-(Benzenesulphonylmethyl)-3-(furan-3-yl)-2-(prop-1-yn-1-yl)benzoic acid]: the half-inhibitory concentration (IC50) is greater than 2 µM. Take `COc1cccc(CS(=O)(=O)c2ccccc2C)c1C(=O)O` [2-Methoxy-6-(2-methylbenzenesulphonylmethyl)benzoic acid]: the half-inhibitory concentration (IC50) was greater than 2 µM. `CCc1ccc(CS(=O)(=O)c2ccc(F)cc2)c(C(=O)O)c1OC` [3-Ethyl-6-(4-fluorobenzenesulphonylmethyl)-2-methoxybenzoic acid]: the IC50 was in the range of 0.2 to 2 µM. Turning to `CCc1ccc(CS(=O)(=O)c2ccccc2)c(C(=O)O)c1-c1ccn(C)n1` [6-Benzenesulphonylmethyl-3-ethyl-2-(1-methyl-1H-pyrazol-3-yl)-benzoic acid], the IC50 was greater than 2 µM. Turning to `COc1c(-c2cccs2)ccc(CS(=O)(=O)c2ccccc2)c1C(=O)O` [6-(Benzenesulphonylmethyl)-2-methoxy-3-(thien-2-yl)benzoic acid], the IC50 is greater than 2 µM. Turning to `O=C(O)c1cc(-c2ccoc2)ccc1CS(=O)(=O)c1ccccc1` [2-(Benzenesulphonylmethyl)-5-(furan-3-yl)benzoic acid], the IC50 lay in the range of 0.2 to 2 µM.

`CCN(CC)C/C=C\c1cc(F)ccc1S(=O)(=O)Cc1ccc(-c2ccoc2)c(OC)c1C(=O)O` [(Z)-6-((2-(3-(Diethylamino)prop-1-enyl)-4-fluorophenylsulfonyl)methyl)-3-(furan-3-yl)-2-methoxybenzoic acid]: the half-inhibitory concentration (IC50) is less than 0.2 µM. For the compound `COc1c(-c2ccoc2)ccc(CS(=O)(=O)N2CCC(F)(F)CC2)c1C(=O)O` [6-(4,4-Difluoropiperidine-1-ylsulphonylmethyl)-3-(furan-3-yl)-2-methoxybenzoic acid], the IC50 was less than 0.2 µM. Under `COc1ccccc1S(=O)(=O)Cc1ccc(-c2ccoc2)c(OCCN)c1C(=O)O` [2-(2-Aminoethoxy)-3-(furan-3-yl)-6-(2-methoxybenzenesulphonyl-methyl)benzoic acid hydrochloride] stands 0.2 to 2 µM; under `CCOc1c(-c2ccoc2)ccc(CS(=O)(=O)c2ccccc2)c1C(=O)O` [6-(Benzenesulphonylmethyl)-2-ethoxy-3-(furan-3-yl)benzoic acid], 0.2 to 2 µM. With `COc1ccccc1S(=O)(=O)Cc1ccc(-c2ccoc2)c(OC)c1C(=O)O` [3-(Furan-3-yl)-2-methoxy-6-(2-methoxybenzenesulphonylmethyl)-benzoic acid], the concentration for half-maximal inhibition (IC50) is 0.2 to 2 µM. Take `COc1c(-c2ccoc2)ccc(CS(=O)(=O)c2ccccc2)c1C(=O)O` [6-(Benzenesulphonylmethyl)-3-(furan-3-yl)-2-methoxy-benzoic acid]: the IC50 was less than 0.2 µM. With `COc1cccc(CS(=O)(=O)c2ccccc2)c1C(=O)O` [2-(Benzenesulphonylmethyl)-6-methoxybenzoic acid] the figure was greater than 2 µM; with `COc1c(-c2ccoc2)ccc(CS(=O)(=O)c2cccnc2)c1C(=O)O` [3-(Furan-3-yl)-2-methoxy-6-(pyridin-3-ylsulphonylmethyl)benzoic acid], 0.2 to 2 µM. As for `CCc1ccc(CS(=O)(=O)c2ccccc2)c(C(=O)O)c1` [2-(Benzenesulphonylmethyl)-5-ethylbenzoic acid], the 50% inhibitory concentration (IC50) was 0.2 to 2 µM.

Take `COc1c(-c2ccoc2)ccc(CS(=O)(=O)c2ccc(F)cc2)c1C(=O)O` [6-(4-Fluorobenzenesulphonylmethyl)-3-(furan-3-yl)-2-methoxybenzoic acid]: the IC50 is less than 0.2 µM.

With `Cc1occc1-c1ccc(CS(=O)(=O)c2ccccc2)c(C(=O)O)c1` [2-(Benzenesulphonylmethyl)-5-(2-methylfuran-3-yl)benzoic acid], the half-maximal inhibitory concentration (IC50) lay in the range of 0.2 to 2 µM. As to `COc1c(-n2ccnc2)ccc(CS(=O)(=O)c2ccccc2)c1C(=O)O` [6-(Benzenesulphonylmethyl)-3-(imidazol-1-yl)-2-methoxybenzoic acid], the IC50 is greater than 2 µM. For the compound `COc1c(C2CCOC2)ccc(CS(=O)(=O)C2CC3CCC2CC3)c1C(=O)O` (centres unmarked) [6-(Bicyclo[2.2.2]octane-2-ylsulphonylmethyl)-2-methoxy-3-(tetrahydrofuran-3-yl)benzoic acid], the IC50 is greater than 2 µM. Turning to `COc1cc(CS(=O)(=O)c2ccccc2)c(C(=O)O)c(OC)c1-c1ccoc1` [6-(Benzenesulphonylmethyl)-3-(furan-3-yl)-2,4-dimethoxybenzoic acid], the IC50 fell in the range of 0.2 to 2 µM. In the case of `COc1c(-c2ccoc2)ccc(CS(=O)(=O)c2ccccc2Cl)c1C(=O)O` [6-(2-Chlorobenzenesulphonylmethyl)-3-(furan-3-yl)-2-methoxybenzoic acid], the IC50 was 0.2 to 2 µM.

As to `COc1c(-c2ccoc2)ccc(CS(=O)(=O)N2CCCCC2)c1C(=O)O` [3-(Furan-3-yl)-2-methoxy-6-(piperidine-1-ylsulphonylmethyl)benzoic acid], the IC50 is less than 0.2 µM. Consider `COc1c(Br)ccc(CS(=O)(=O)c2ccccc2)c1C(=O)O` [6-(Benzenesulphonylmethyl)-3-bromo-2-methoxybenzoic acid], for which the IC50 fell in the range of 0.2 to 2 µM. On to `N#CCOc1c(-c2ccoc2)ccc(CS(=O)(=O)c2ccccc2)c1C(=O)O` [6-(Benzenesulphonylmethyl)-2-(cyanomethoxy)-3-(furan-3-yl)benzoic acid], for which the IC50 is less than 0.2 µM. In the case of `CCN(CC)C/C=C/c1ccccc1S(=O)(=O)Cc1ccc(-c2ccoc2)c(OC)c1C(=O)O` [(E)-6-((2-(3-(diethylamino)prop-1-enyl)benzenesulfonyl)methyl)-3-(furan-3-yl)-2-methoxybenzoic acid], the IC50 was 0.2 to 2 µM. `N#CCNc1c(-c2ccoc2)ccc(CS(=O)(=O)c2ccccc2)c1C(=O)O` [6-(Benzenesulphonylmethyl)-2-(cyanomethylamino)-3-(furan-3-yl)benzoic acid]: the 50% inhibitory concentration (IC50) was less than 0.2 µM. As for `COc1c(-c2ccoc2)ccc(CS(=O)(=O)c2ccccc2/C=C\CN2CCCCC2)c1C(=O)O` [(Z)-3-(Furan-3-yl)-2-methoxy-6-((2-(3-(piperidin-1-yl)prop-1-enyl)benzenesulfonyl)methyl)benzoic acid], the IC50 is less than 0.2 µM. Take `COc1c(-c2ccoc2)ccc(CS(=O)(=O)N2CCCC2)c1C(=O)O` [3-(Furan-3-yl)-2-methoxy-6-(pyrrolidin-1-ylsulphonylmethyl)-benzoic acid]: the IC50 was in the range of 0.2 to 2 µM. Under `O=C(O)c1c(CS(=O)(=O)c2ccccc2)ccc(-c2ccoc2)c1OC1CNC1` [2-(Azetidin-3-yloxy)-6-(benzenesulphonylmethyl)-3-(furan-3-yl)-benzoic acid hydrochloride] stands greater than 2 µM; under `CCN(CC)C/C=C\c1cc(F)ccc1S(=O)(=O)Cc1ccc(-c2ccoc2)c(OCC#N)c1C(=O)O` [(Z)-2-Cyanomethoxy-6-((2-(3-(Diethylamino)prop-1-enyl)-4-fluorobenzenesulfonyl)methyl)-3-(furan-3-yl)benzoic acid], less than 0.2 µM. For the compound `CCN(CC)CCCc1ccccc1S(=O)(=O)Cc1ccc(-c2ccoc2)c(OC)c1C(=O)O` [6-[2-(3-Diethylaminopropyl)benzenesulphonylmethyl]-3-(furan-3-yl)-2-methoxybenzoic acid], the half-maximal inhibitory concentration (IC50) is less than 0.2 µM.
